Data on 67 molecules can be found in PubChem BioAssay AID652053 (Broad Institute, 2013).

This assay concerns Huh7 psiCHECK-miR122 Renilla luciferase reporter, 48 h. The assay is described as follows: miR-122 inhibitors in Huh7 reporter cells, dose response, cell-based, Huh7 psiCHECK-miR122, Renilla luciferase, cherry-pick (AID 652053).
As for `Cc1ccc(-c2n[nH]c(=O)c3ccccc23)cc1S(=O)(=O)NCCN1CCOCC1`, the AC40 is 15.4 µM.

For the molecule `COc1ccc(C)cc1S(=O)(=O)NC1CCCC1`, the AC40 was 6.24 µM.

With `C[C@@H]1CN([C@@H](C)CO)C(=O)Cc2cc(N(C)C)ccc2O[C@H]1CN(C)Cc1ccc(C(=O)Nc2ccccc2N)cc1`, the AC40 was 10.1 µM.

Consider `Cc1cc(C)c(C)c(S(=O)(=O)Nc2ccc(C(=O)N3CCCC3)cc2)c1C`, for which the AC40 was 2 µM.

Consider `C[C@H](CO)N1C[C@H](C)[C@@H](CN(C)Cc2ccccc2)Oc2c(NS(=O)(=O)c3ccccc3)cccc2C1=O`, for which the AC40 is 3.64 µM.

On to `COc1ccc(NS(=O)(=O)c2cc(NC(=O)c3ccc(=O)[nH]n3)ccc2C)cc1`, for which the AC40 was 5.01 µM.

`COc1ccc(S(=O)(=O)NCc2ccccc2)cc1`: the AC40 was 2.53 µM.

For `CC(=O)Nc1ccc(S(=O)(=O)C(C#N)c2nc3ccccc3nc2NCCO)cc1` (configuration not stated), the AC40 was 25.9 µM.

As for `Cc1ccnc(NCc2cc(C)ccc2O)c1`, the AC40 is 29.8 µM.

In the case of `Cc1ccc(NS(=O)(=O)c2cc(C(=O)NCc3ccccn3)ccc2Cl)cc1C`, the AC40 is 2.91 µM.

Take `CN(C)Cc1ccccc1CNC(=O)c1cccc(S(=O)(=O)Nc2ccc3c(c2)OCO3)c1`: the AC40 is 2.15 µM.

Take `CC(=Nc1ccccc1)C1=C(O)C(Cc2cccc(F)c2)NC1=O` (configuration not stated): the AC40 is 3.86 µM.

Consider `Cc1noc(C)c1NC(=O)Nc1cccc2c1O[C@H](CN(C)Cc1ccccc1)[C@@H](C)CN([C@H](C)CO)C2=O`, for which the AC40 was 7.74 µM.

Turning to `Cc1ccc(C)c(S(=O)(=O)NCCCc2ccccc2)c1`, the AC40 was 3.15 µM.

In the case of `c1ccc(CNc2nnnn2-c2ccccc2)cc1`, the AC40 is 17.1 µM.

For `C[C@H](CO)N1C[C@H](C)[C@@H](CN(C)Cc2ccc(C(F)(F)F)cc2)Oc2c(NC(=O)c3cnccn3)cccc2C1=O`, the AC40 was 1.43 µM.

As to `COc1ccc(NS(=O)(=O)c2cc3c(cc2C)N(C)CCO3)c(OC)c1`, the AC40 is 1.81 µM.

With `Cc1ccc(S(=O)(=O)Nc2ccc(-n3cnnn3)cc2)c(C)c1`, the AC40 was 0.759 µM.

Consider `O=S(=O)(Nc1ccccc1)c1ccc(-c2cnc(C3CC3)o2)cc1`, for which the AC40 was 8.92 µM.

Take `O=C(CN(C1CCCCC1)S(=O)(=O)c1ccc(F)cc1)Nc1ccc2c(c1)OCO2`: the AC40 is 6.36 µM.

Take `COc1ccc(NS(=O)(=O)c2cc(OC)ccc2OC)cc1`: the AC40 was 5.31 µM.

For `Cc1cccc(NS(=O)(=O)c2ccc3c(c2)OCCO3)c1`, the AC40 was 1.57 µM.

For the molecule `O=C(Nc1cc(S(=O)(=O)Nc2ccccc2F)ccc1Cl)c1ccc(F)cc1F`, the AC40 was 7.6 µM.

Consider `O=S1(=O)c2ccc(Br)cc2N2CCC[C@H]2CN1Cc1ccccc1`, for which the AC40 was 34.9 µM.

On to `Cc1ccc(NS(=O)(=O)c2cc(C(=O)NCc3ccncc3)ccc2C)cc1`, for which the AC40 was 2.82 µM.

As for `Cc1ccc(-c2nn(Cc3ccccc3)cc2C(=O)N2CCN(c3ccccn3)CC2)cc1`, the AC40 is 2.44 µM.

Regarding `COC(=O)c1cc(S(=O)(=O)Nc2cc(OC)cc(OC)c2)cn1C`, the AC40 is 2.37 µM.

`O=S(=O)(c1ccccc1)N(CC(O)COc1ccccc1)c1ccccc1` (configuration not stated): the AC40 is 18.9 µM.

Take `CCOc1ccc(S(=O)(=O)NCc2ccco2)c2ccccc12`: the AC40 is 3.06 µM.

On to `COc1ccc(NS(=O)(=O)c2cc(NC(=O)c3ccc(=O)[nH]c3)ccc2N2CCCC2)cc1`, for which the AC40 was 0.424 µM.

On to `COc1ccc(NS(=O)(=O)c2ccc(NC(=S)NC(=O)C(C)C)cc2)cc1`, for which the AC40 was 1.34 µM.

With `Cc1cccc(NS(=O)(=O)c2cc3c4c(c2)CCC(=O)N4CCC3)c1`, the AC40 was 1.94 µM.

As for `CC(C)CC(=O)Nc1cccc(-c2nc3ccccc3[nH]2)c1`, the AC40 was 15.6 µM.

Regarding `Cc1ccc(C)c(S(=O)(=O)Nc2cc3c4c(c2)CC(=O)N4CCC3)c1`, the AC40 is 1.88 µM.

As to `O=C(Nc1ccc(S(=O)(=O)NCCc2ccccc2)cc1)c1ccc(Br)o1`, the AC40 was 0.54 µM.

Regarding `O=C(Cc1ccccc1)N1C[C@@H]2[C@H](c3ccccc31)[C@@H](CO)N2C(=O)Nc1ccc(F)cc1`, the AC40 was 2.61 µM.

For the molecule `COc1ccc(S(=O)(=O)Nc2ccc3c(c2)C(=O)N([C@@H](C)CO)C[C@H](C)[C@H](CN(C)C(=O)Nc2ccccc2)OCCCC[C@@H](C)O3)cc1`, the AC40 is 29.6 µM.

Consider `CCC(=O)N1N=C(c2ccc(NS(=O)(=O)c3ccc(C)cc3)cc2)CC1c1ccco1` (configuration not stated), for which the AC40 was 4.52 µM.

On to `CCc1ccc(NS(=O)(=O)c2cc(OC)ccc2OC)cc1`, for which the AC40 is 0.866 µM.

For `CCC(=O)NC(=S)Nc1ccc(S(=O)(=O)NC2CCCCC2)cc1`, the AC40 is 1.1 µM.

For `COc1ccc(S(=O)(=O)NCCc2c(C)nn(C)c2Oc2ccccc2)cc1`, the AC40 was 4.82 µM.

As to `CCOc1ccc(Cl)cc1S(=O)(=O)NC1CCCC1`, the AC40 is 2.27 µM.

Regarding `COc1ccc(N2CCN(C(=O)c3csc4ccccc34)CC2)cc1`, the AC40 is 15.9 µM.

Take `CCc1cccc(NS(=O)(=O)c2ccc3c(c2)NC(=O)CO3)c1`: the AC40 was 7 µM.

In the case of `O=C(Nc1sc2c(c1C(=O)O)CCCCC2)c1ccco1`, the AC40 was 2.49 µM.

`COc1ccc(NS(=O)(=O)c2cc(NS(=O)(=O)c3cccs3)ccc2C)cc1`: the AC40 was 4.04 µM.

On to `Cc1cc(C(O)c2ncc(-c3ccccc3F)[nH]2)ccc1F` (configuration not stated), for which the AC40 was 3.57 µM.

Turning to `Cc1ccc(C(=O)NCCSC2CCCCC2)cc1S(=O)(=O)Nc1ccccc1`, the AC40 was 6.44 µM.

Consider `CCOc1ccccc1N1CCN(C(=O)c2cc3ccccc3cc2OC)CC1`, for which the AC40 is 4.78 µM.

Take `Cc1cc(C(=O)Nc2cccc3c2O[C@@H](CN(C)CC2CCCCC2)[C@@H](C)CN([C@H](C)CO)C3=O)n(C)n1`: the AC40 was 2.41 µM.

As for `CCCCNS(=O)(=O)c1ccc2nc(SCC(=O)Nc3sccc3C#N)[nH]c2c1`, the AC40 is 0.553 µM.

In the case of `CC(=O)N1CCc2cc(Br)cc(S(=O)(=O)NCc3ccc(Cl)cc3)c21`, the AC40 was 4.29 µM.

With `CN(Cc1ccccc1)S(=O)(=O)c1ccc(NC(=S)NC(=O)C2CCCC2)cc1`, the AC40 is 9.75 µM.

With `C/C(=N\NC(=O)c1cccc(S(=O)(=O)Nc2cccc(Cl)c2)c1)c1cccs1`, the AC40 is 3.3 µM.

For the molecule `COc1ccc(NS(=O)(=O)c2cc(NC(=O)Cc3c(F)cccc3Cl)ccc2OC)cc1`, the AC40 is 3.67 µM.

As for `COc1ccc(OC)c(S(=O)(=O)Nc2cc3c4c(c2)CCN4C(=O)CC3)c1`, the AC40 is 2.85 µM.

As to `Cc1ccccc1C(=O)Nc1ccc(Br)c(C)n1`, the AC40 was 3.17 µM.

With `COc1ccccc1NS(=O)(=O)c1cc(NC(=O)c2cccs2)ccc1N1CCOCC1`, the AC40 is 0.895 µM.

For `Cc1ccc(NC(=O)CNC(=O)c2cccs2)cc1S(=O)(=O)Nc1ccc(Cl)cc1`, the AC40 was 3.31 µM.

`Cc1ccc(NS(=O)(=O)c2cccc3nsnc23)cc1C`: the AC40 was 4.13 µM.

For `Cc1cc(Cl)c(S(=O)(=O)NCc2ccccc2)cc1OCC(N)=O`, the AC40 was 8.54 µM.

On to `O=C(CN1CCOCC1)Nc1ccc(Br)cc1C(=O)c1ccccc1`, for which the AC40 was 1.64 µM.

On to `Cc1ccc(NC(=O)Cc2cn(C)c3ccccc23)cc1F`, for which the AC40 was 7.09 µM.

For the molecule `Cc1ccc(N(CC(=O)NCc2cccs2)S(=O)(=O)c2cccs2)cc1`, the AC40 was 29 µM.

With `COc1ccc(OC)c(-c2csc(NC(=O)Cc3ccccc3F)n2)c1`, the AC40 was 8.49 µM.

In the case of `COc1ccc(S(=O)(=O)N2CC[C@@H]3[C@H](CO)N(C)c4ccc(-c5ccc(F)cc5)cc4[C@@H]32)cc1`, the AC40 is 7.49 µM.

On to `CSc1ccc(S(=O)(=O)NC2CCCCC2)cc1`, for which the AC40 is 2.87 µM.
